Assay results from ChEMBL document CHEMBL5137064, “Therapeutic Potential and Activity Modulation of the Protein Lysine Deacylase Sirtuin 5” (J Med Chem, 2022).
pIC50: −log10 of the molar value.

Assays:
[1] = Cytotoxicity against human PDAC cells assessed as cell viability; type: functional, cell-based
[2] = target: T1, NAD-dependent protein deacetylase sirtuin-2 (Homo sapiens, UniProt Q8IXJ6); test: Inhibition of recombinant SIRT2 (unknown origin) using […] as substrate incubated for 4 hrs by homogenous fluorescent deacetylase assay
T1 sequence (Q8IXJ6 whole entry): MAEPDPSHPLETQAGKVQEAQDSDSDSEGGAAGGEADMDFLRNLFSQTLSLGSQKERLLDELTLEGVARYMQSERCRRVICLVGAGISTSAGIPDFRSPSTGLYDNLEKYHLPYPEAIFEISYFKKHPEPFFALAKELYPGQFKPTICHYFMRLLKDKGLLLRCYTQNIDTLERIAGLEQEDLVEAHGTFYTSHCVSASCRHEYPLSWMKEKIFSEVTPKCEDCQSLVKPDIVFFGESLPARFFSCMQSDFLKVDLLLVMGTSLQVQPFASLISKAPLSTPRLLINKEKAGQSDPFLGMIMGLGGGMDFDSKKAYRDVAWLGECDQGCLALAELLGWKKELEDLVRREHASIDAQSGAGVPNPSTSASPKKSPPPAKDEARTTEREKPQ

pIC50 [2]	SMILES	pIC50 [1]
–	CCOC(=O)C1=CN(C(=O)c2ccccc2)C=C(C(=O)OCC)C1c1cccc(OC)c1	4.60
5.94	Cc1ccc(C(=O)Nc2ccc(S(=O)(=O)O)c3cc(S(=O)(=O)O)cc(S(=O)(=O)O)c23)cc1NC(=O)c1cccc(NC(=O)Nc2cccc(C(=O)Nc3cc(C(=O)Nc4ccc(S(=O)(=O)O)c5cc(S(=O)(=O)O)cc(S(=O)(=O)O)c45)ccc3C)c2)c1 [SURAMIN]	–
